Test results taken from publication PMC4616163, “Inverse relationship between chitobiase and transglycosylation activities of chitinase-D from Serratia proteamaculans revealed by mutational and biophysical analyses” (Scientific Reports, 2015).
“And” between values parts separate entries of the source, which are not always exact repeats. Equal entries are not always repeated. Where two headings read alike, the source gives them in different places.

What was measured:
SpChiD mutant E153A = experiment: DSC ligand-induced thermal stability of E153A with CHOS DP2–6; assay type: binding, Serratia proteamaculans; conditions: for Tm Transition-I / Tm Transition-II: DSC, pH 8.0; for Tm Transition-I: E153A 0.5 mg/mL alone or pre-incubated 1 h with 1 mM ligand; for Tm Transition-II: E153A alone or pre-incubated 1 h with 1 mM ligand; for increment of Tm1 over E153A alone / increment of Tm2 over E153A alone: [Tm of E153A + (DP)n] − Tm of E153A alone; for increment of Tm1 over E153A alone: first transition; for increment of Tm2 over E153A alone: second transition
Protocol: DSC measurements were carried out on a MicroCal VP-DSC (MicroCal LLC, Northampton, MA, USA). SpChiD and mutant E153A were dialyzed against 20 mM potassium phosphate buffer, pH 8.0. The dialysate was used as the reference. Protein samples (0.5 mg/mL) were heated from 10–70 °C at a scan rate of 30°/h to assess the effect of ligand binding on thermal unfolding. Mutant E153A was pre-incubated for 1 h with 1 mM of each ligand (DP2–6) before scanning. Sample and reference solutions were degassed prior to scanning to eliminate bubbling effects. Baseline reproducibility was verified by multiple scans, and the reversibility of protein unfolding was monitored by scanning the sample twice. Buffer scans were subtracted from thermograms obtained in the presence or absence of CHOS before further analysis. Absolute and excess heat capacities were analyzed using a non-two-state fit of the thermogram in Origin v7.0.

SpChiD-E153A [1] = experiment: ITC binding of CHOS to E153A; parameters: species or system Serratia proteamaculans; conditions: for binding affinity to E153A relative to the same ligand on SmChiB: times higher than SmChiB
Protocol: (§1) Calorimetric titrations were carried out at 13 °C with DP2–4 CHOS, and at 25 °C with DP5 and DP6 CHOS, using a MicroCal ITC200 System (Microcal, Northampton, MA, USA). Mutant E153A was extensively dialyzed against 20 mM potassium phosphate (pH 8.0) and the dialysate was used to make CHOS solutions to minimize the heat of dilution during titration. Protein solutions were passed through 0.2-μm filters and thoroughly degassed prior to use. […] Successive injections at 225-s intervals ensured that equilibrium was achieved before adding the next aliquot. The sample in the calorimeter cell was stirred at 260 rpm during titration. Blank titrations were also performed by injecting ligand alone into the buffer solution, which yielded insignificant heat of dilution values. The binding isotherms were analyzed using MicroCal Origin v7.0. Thermodynamic parameters such as binding stoichiometry (n), change in enthalpy (ΔH) and association constant (Ka) were obtained by nonlinear least-squares fitting of experimental data using the one-set-of-sites binding model. Free energy of binding (ΔG) and change in entropy (ΔS) were deduced from the Ka and ΔH values using the standard thermodynamic equation

SpChiD-E153A [2] = molecular target: SpChiD-E153A (Serratia proteamaculans, UniProt A8GFD6, E159A); experiment: ITC binding of CHOS to E153A; conditions: ITC
SpChiD-E153A (Serratia proteamaculans, UniProt A8GFD6, E159A), sequence (A8GFD6 entry or part of it E159A): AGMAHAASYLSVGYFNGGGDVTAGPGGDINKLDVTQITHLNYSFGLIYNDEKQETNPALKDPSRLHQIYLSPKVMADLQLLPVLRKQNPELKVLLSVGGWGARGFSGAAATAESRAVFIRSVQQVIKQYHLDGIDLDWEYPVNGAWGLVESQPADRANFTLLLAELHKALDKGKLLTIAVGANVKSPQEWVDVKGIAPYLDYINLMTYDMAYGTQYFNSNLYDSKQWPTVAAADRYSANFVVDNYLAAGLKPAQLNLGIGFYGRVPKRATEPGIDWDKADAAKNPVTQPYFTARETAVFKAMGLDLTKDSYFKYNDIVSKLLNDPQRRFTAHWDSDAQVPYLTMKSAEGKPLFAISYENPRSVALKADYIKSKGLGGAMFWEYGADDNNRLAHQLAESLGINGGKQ
Protocol: as §1

BcChiA-E61A = experiment: Literature Kd values from isothermal titration calorimetry, quoted for comparison; conditions not given in this article.; assay type: binding; conditions: read-out: Kd values in μM (SmChiB-E144Q, OfChtI-E148Q, BcChiA-E61A); cited from earlier work
From the text: (§2) So far three chitinases, two belonging to family GH18 (ChiB from S. marcescens−SmChiB and a chitinase from the insect Ostrinia furnacalis−OfChtI) and one belonging to family GH19 (ChiA from moss species, Bryum coronatum−BcChiA) were studied in great detail for their binding properties using ITC[27][28][29]. […] The high binding affinities of the mutant E153A even for the lower chain CHOS like DP2 and DP3, indicates the probability of these CHOS getting transglycosylated at the substrate-binding cleft. […] Therefore, the exceptionally high binding affinities of the mutant E153A for CHOS with DP2−6 compared to any other GH18 or GH19 chitinases[27][28][29] (Table 3) might be crucial to facilitate the unprecedented hyper-TG activity by SpChiD.

SmChiB-E144Q = experiment: as above; assay type: binding; conditions: read-out: Kd values in μM (SmChiB-E144Q, OfChtI-E148Q, BcChiA-E61A); cited from earlier work
From the text: as §2

OfChtI-E148Q = conditions: catalytically-inactive mutant, cited from earlier work

## CC(=O)N[C@H]1[C@H](O[C@H]2[C@H](O)[C@@H](NC(C)=O)C(O)O[C@@H]2CO)O[C@H](CO)[C@@H](O)[C@@H]1O (some centres unmarked) [DP2]
SpChiD mutant E153A
  Tm Transition-I: 48.78 ± 0.03 °C
  Tm Transition-II: 53.16 ± 0.096 °C
SpChiD-E153A [1]; compared with DP5 on SmChiB (Kd = 0.67 μM)
  binding affinity of DP2 to SpChiD relative to DP5 binding to SmChiB: ~3 times
SpChiD-E153A [2]; 13 °C
  n (binding stoichiometry): 3.04 and 3.04 ± 0.307
  ΔH°: -0.1506 ± 0.0261 kcal/mol
  ΔS°: 20.6 cal.mol^−1.deg^−1
  −TΔS: 5.89 kcal/mol
  −ΔG°: 6.04 kcal/mol

## CC(=O)N[C@H]1[C@H](O[C@H]2[C@H](O)[C@@H](NC(C)=O)C(O)O[C@@H]2CO)O[C@H](CO)[C@@H](O[C@@H]2O[C@H](CO)[C@@H](O)[C@H](O)[C@H]2NC(C)=O)[C@@H]1O (some centres unmarked) [DP3, (GlcNAc)3, N,N',N''-triacetylchitotriose]
BcChiA-E61A
  Kd: 230 ± 20 µM
SmChiB-E144Q
  Kd: 327 ± 22 µM

## CC(=O)N[C@H]1[C@H](O[C@H]2[C@H](O)[C@@H](NC(C)=O)C(O)O[C@@H]2CO)O[C@H](CO)[C@@H](O[C@@H]2O[C@H](CO)[C@@H](O)[C@H](O)[C@H]2NC(C)=O)[C@@H]1O (some centres unmarked) [DP3]
OfChtI-E148Q; read-out: Kd1 to OfChtI-E148Q
  Kd: 76900 nM
OfChtI-E148Q; read-out: Kd2 to OfChtI-E148Q
  Kd: 284000 nM
SpChiD mutant E153A
  Tm Transition-I: 50.20 ± 0.47 °C
  Tm Transition-II: 54.30 ± 0.043 °C
SpChiD-E153A [1]
  binding affinity to E153A relative to the same ligand on SmChiB: 1,515 fold
SpChiD-E153A [2]; 13 °C
  n (binding stoichiometry): 0.84 and 0.839 ± 0.0641
  ΔH°: -1.837 ± 0.186 kcal/mol
  ΔS°: 14.9 cal.mol^−1.deg^−1
  −TΔS: 4.26 kcal/mol
  −ΔG°: 6.1 kcal/mol

## CC(=O)N[C@H]1[C@H](O[C@H]2[C@H](O)[C@@H](NC(C)=O)C(O)O[C@@H]2CO)O[C@H](CO)[C@@H](O[C@@H]2O[C@H](CO)[C@@H](O[C@@H]3O[C@H](CO)[C@@H](O)[C@H](O)[C@H]3NC(C)=O)[C@H](O)[C@H]2NC(C)=O)[C@@H]1O (some centres unmarked) [DP4, (GlcNAc)4, tetra-N-acetylchitotetraose]
BcChiA-E61A
  Kd: 16 ± 1 µM
SmChiB-E144Q
  Kd: 2.7 ± 0.19 µM

## CC(=O)N[C@H]1[C@H](O[C@H]2[C@H](O)[C@@H](NC(C)=O)C(O)O[C@@H]2CO)O[C@H](CO)[C@@H](O[C@@H]2O[C@H](CO)[C@@H](O[C@@H]3O[C@H](CO)[C@@H](O)[C@H](O)[C@H]3NC(C)=O)[C@H](O)[C@H]2NC(C)=O)[C@@H]1O (some centres unmarked) [DP4]
OfChtI-E148Q; read-out: Kd to OfChtI-E148Q
  Kd: 11300 ± 1500 nM
SpChiD mutant E153A
  Tm Transition-I: 48.88 ± 0.52 °C
  Tm Transition-II: 54.10 ± 0.032 °C
SpChiD-E153A [2]; 13 °C
  n (binding stoichiometry): 1.69 and 1.69 ± 0.071
  ΔH°: 1.148 ± 0.0675 kcal/mol
  ΔS°: 27 cal.mol^−1.deg^−1
  −TΔS: 7.72 kcal/mol
  −ΔG°: 6.6 kcal/mol

## CC(=O)N[C@H]1[C@H](O[C@H]2[C@H](O)[C@@H](NC(C)=O)[C@H](O[C@H]3[C@H](O)[C@@H](NC(C)=O)C(O)O[C@@H]3CO)O[C@@H]2CO)O[C@H](CO)[C@@H](O[C@@H]2O[C@H](CO)[C@@H](O[C@@H]3O[C@H](CO)[C@@H](O)[C@H](O)[C@H]3NC(C)=O)[C@H](O)[C@H]2NC(C)=O)[C@@H]1O (some centres unmarked) [DP5, (GlcNAc)5, penta-N-acetylchitopentaose]
BcChiA-E61A
  Kd: 1.8 ± 0.3 µM
SmChiB-E144Q
  Kd: 0.67 ± 0.2 µM

## CC(=O)N[C@H]1[C@H](O[C@H]2[C@H](O)[C@@H](NC(C)=O)[C@H](O[C@H]3[C@H](O)[C@@H](NC(C)=O)C(O)O[C@@H]3CO)O[C@@H]2CO)O[C@H](CO)[C@@H](O[C@@H]2O[C@H](CO)[C@@H](O[C@@H]3O[C@H](CO)[C@@H](O)[C@H](O)[C@H]3NC(C)=O)[C@H](O)[C@H]2NC(C)=O)[C@@H]1O (some centres unmarked) [DP5]
OfChtI-E148Q; read-out: Kd to OfChtI-E148Q
  Kd: 2000 ± 200 nM
SpChiD mutant E153A
  Tm Transition-I: 56.09 ± 0.30 °C
  Tm Transition-II: 59.30 ± 0.063 °C
  increment of Tm1 over E153A alone: 10.7 °C
  increment of Tm2 over E153A alone: 11.2 °C
SpChiD-E153A [1]
  binding affinity to E153A relative to the same ligand on SmChiB: 52 fold
SpChiD-E153A [2]; 25 °C
  n (binding stoichiometry): 1.09 and 1.09 ± 0.00966
  ΔH°: 3.530 ± 0.0468 kcal/mol
  ΔS°: 38.7 cal.mol^−1.deg^−1
  −TΔS: 11.53 kcal/mol
  −ΔG°: 8 kcal/mol

## CC(=O)N[C@H]1[C@H](O[C@H]2[C@H](O)[C@@H](NC(C)=O)[C@H](O[C@H]3[C@H](O)[C@@H](NC(C)=O)C(O)O[C@@H]3CO)O[C@@H]2CO)O[C@H](CO)[C@@H](O[C@@H]2O[C@H](CO)[C@@H](O[C@@H]3O[C@H](CO)[C@@H](O[C@@H]4O[C@H](CO)[C@@H](O)[C@H](O)[C@H]4NC(C)=O)[C@H](O)[C@H]3NC(C)=O)[C@H](O)[C@H]2NC(C)=O)[C@@H]1O (some centres unmarked) [DP6, (GlcNAc)6, hexa-N-acetylchitohexaose (chitohexaose)]
BcChiA-E61A
  Kd: 0.77 ± 0.06 µM
SmChiB-E144Q
  Kd: 0.13 ± 0.09 µM

## CC(=O)N[C@H]1[C@H](O[C@H]2[C@H](O)[C@@H](NC(C)=O)[C@H](O[C@H]3[C@H](O)[C@@H](NC(C)=O)C(O)O[C@@H]3CO)O[C@@H]2CO)O[C@H](CO)[C@@H](O[C@@H]2O[C@H](CO)[C@@H](O[C@@H]3O[C@H](CO)[C@@H](O[C@@H]4O[C@H](CO)[C@@H](O)[C@H](O)[C@H]4NC(C)=O)[C@H](O)[C@H]3NC(C)=O)[C@H](O)[C@H]2NC(C)=O)[C@@H]1O (some centres unmarked) [DP6, chitohexaose]
OfChtI-E148Q; read-out: Kd to OfChtI-E148Q
  Kd: 480 ± 90 nM
SpChiD mutant E153A
  Tm Transition-I: 58.15 ± 0.19 °C
  Tm Transition-II: 60.49 ± 0.055 °C
  increment of Tm1 over E153A alone: 12.8 °C
  increment of Tm2 over E153A alone: 12.4 °C
SpChiD-E153A [1]
  binding affinity to E153A relative to the same ligand on SmChiB: 26 fold
SpChiD-E153A [2]; 25 °C
  n (binding stoichiometry): 1.58 and 1.58 ± 0.00962
  ΔH°: 2.281 ± 0.0249 kcal/mol
  ΔS°: 36.3 cal.mol^−1.deg^−1
  −TΔS: 10.81 kcal/mol
  −ΔG°: 8.53 kcal/mol
